# Results published in the supplement of paper PMC10307832.
# Columns and labels:
# Test in all cases: relative viability (nuclei count vs DMSO), 5 days (fraction); higher = more cells survive
# HCC-78 = test system: HCC-78
# Procedure, shortened: (§1)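 Relative viability is defined as nuclei in treated wells over nuclei in vehicle wells. Duplicate plates were run and medians reported. Lung cancer cell lines in 1536-well plates were dosed by pin tool one day after seeding, with one drug or with a fixed anchor-drug dose plus five library-drug doses (not always all listed) in √10 steps, and nuclei were counted after 5 days.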
# NCI-H1975 = test system: NCI-H1975
# Procedure, shortened: as §1
# NCI-H2126 = test system: NCI-H2126
# Procedure, shortened: as §1
# EMC-BAC-2 = test system: EMC-BAC-2
# Procedure, shortened: as §1
# NCI-H1944 = test system: NCI-H1944
# Procedure, shortened: as §1
# HCC-366 = test system: HCC-366
# Procedure, shortened: as §1
# HCC-44 = test system: HCC-44
# Procedure, shortened: as §1
# NCI-H838 = test system: NCI-H838
# Procedure, shortened: as §1
# NCI-H1355 = test system: NCI-H1355
# Procedure, shortened: as §1
# NCI-H2087 = test system: NCI-H2087
# Procedure, shortened: as §1
# NCI-H2347 = test system: NCI-H2347
# Procedure, shortened: as §1
# NCI-H2009 = test system: NCI-H2009
# Procedure, shortened: as §1
# NCI-H1734 = test system: NCI-H1734
# Procedure, shortened: as §1
# NCI-H522 = test system: NCI-H522
# Procedure, shortened: as §1
# NCI-H727 = test system: NCI-H727
# Procedure, shortened: as §1
# HOP-62 = test system: HOP-62
# Procedure, shortened: as §1
# PC-3 [JPC-3] = test system: PC-3 [JPC-3]
# Procedure, shortened: as §1
# ChaGo-K-1 = test system: ChaGo-K-1
# Procedure, shortened: as §1
# SW 1573 = test system: SW 1573
# Procedure, shortened: as §1
# LC-2-ad = test system: LC-2-ad
# Procedure, shortened: as §1
# NCI-H441 = test system: NCI-H441
# Procedure, shortened: as §1
# UMC-11 = test system: UMC-11
# Procedure, shortened: as §1
# SK-LU-1 = test system: SK-LU-1
# Procedure, shortened: as §1
compound,measurement,setting,value
C=C1C(=O)O[C@@H](CCCCCCCC)[C@@H]1C(=O)O [C-75] + O=C(c1cc(Cc2n[nH]c(=O)c3ccccc23)ccc1F)N1CCN(C(=O)C2CC2)CC1 [Olaparib] (partner 8 µM),relative viability,HCC-78; first compound 0.08 µM,0.838
same,relative viability,HCC-78; first compound 0.253 µM,1.08
same,relative viability,HCC-78; first compound 0.8 µM,0.81
same,relative viability,HCC-78; first compound 8 µM,0.823
same,relative viability,NCI-H1975; first compound 0.08 µM,0.777
same,relative viability,NCI-H1975; first compound 0.253 µM,0.817
same,relative viability,NCI-H1975; first compound 0.8 µM,0.755
same,relative viability,NCI-H1975; first compound 2.53 µM,0.77
same,relative viability,NCI-H1975; first compound 8 µM,0.741
same,relative viability,NCI-H2126; first compound 0.08 µM,0.881
same,relative viability,NCI-H2126; first compound 0.253 µM,0.927
same,relative viability,NCI-H2126; first compound 0.8 µM,0.858
same,relative viability,NCI-H2126; first compound 2.53 µM,0.878
same,relative viability,NCI-H2126; first compound 8 µM,0.894
same,relative viability,EMC-BAC-2; first compound 0.08 µM,0.506
same,relative viability,EMC-BAC-2; first compound 0.253 µM,0.464
same,relative viability,EMC-BAC-2; first compound 0.8 µM,0.475
same,relative viability,EMC-BAC-2; first compound 2.53 µM,0.389
same,relative viability,EMC-BAC-2; first compound 8 µM,0.389
same,relative viability,NCI-H1944; first compound 0.08 µM,0.381
same,relative viability,NCI-H1944; first compound 0.253 µM,0.419
same,relative viability,NCI-H1944; first compound 0.8 µM,0.353
same,relative viability,NCI-H1944; first compound 2.53 µM,0.392
same,relative viability,NCI-H1944; first compound 8 µM,0.428
same,relative viability,HCC-366; first compound 0.08 µM,0.349
same,relative viability,HCC-366; first compound 0.253 µM,0.49
same,relative viability,HCC-366; first compound 0.8 µM,0.341
same,relative viability,HCC-366; first compound 2.53 µM,0.356
same,relative viability,HCC-366; first compound 8 µM,0.347
same,relative viability,HCC-44; first compound 0.08 µM,0.998
same,relative viability,HCC-44; first compound 0.253 µM,0.944
same,relative viability,HCC-44; first compound 0.8 µM,0.962
same,relative viability,HCC-44; first compound 2.53 µM,0.905
same,relative viability,HCC-44; first compound 8 µM,0.919
same,relative viability,NCI-H838; first compound 0.08 µM,0.778
same,relative viability,NCI-H838; first compound 0.253 µM,0.757
same,relative viability,NCI-H838; first compound 0.8 µM,0.738
same,relative viability,NCI-H838; first compound 2.53 µM,0.725
same,relative viability,NCI-H838; first compound 8 µM,0.654
same,relative viability,NCI-H1355; first compound 0.08 µM,0.709
same,relative viability,NCI-H1355; first compound 0.253 µM,0.767
same,relative viability,NCI-H1355; first compound 0.8 µM,0.76
same,relative viability,NCI-H1355; first compound 2.53 µM,0.647
same,relative viability,NCI-H1355; first compound 8 µM,0.753
same,relative viability,NCI-H2087; first compound 0.08 µM,0.643
same,relative viability,NCI-H2087; first compound 0.253 µM,0.626
same,relative viability,NCI-H2087; first compound 0.8 µM,0.584
same,relative viability,NCI-H2087; first compound 2.53 µM,0.468
same,relative viability,NCI-H2087; first compound 8 µM,0.423
same,relative viability,NCI-H2347; first compound 0.08 µM,0.552
same,relative viability,NCI-H2347; first compound 0.253 µM,0.514
same,relative viability,NCI-H2347; first compound 0.8 µM,0.532
same,relative viability,NCI-H2347; first compound 2.53 µM,0.539
same,relative viability,NCI-H2347; first compound 8 µM,0.614
same,relative viability,NCI-H2009; first compound 0.08 µM,0.67
same,relative viability,NCI-H2009; first compound 0.253 µM,0.654
same,relative viability,NCI-H2009; first compound 0.8 µM,0.623
same,relative viability,NCI-H2009; first compound 2.53 µM,0.488
same,relative viability,NCI-H2009; first compound 8 µM,0.521
same,relative viability,NCI-H1734; first compound 0.08 µM,0.546
same,relative viability,NCI-H1734; first compound 0.253 µM,0.569
same,relative viability,NCI-H1734; first compound 0.8 µM,0.277
same,relative viability,NCI-H1734; first compound 2.53 µM,0.506
same,relative viability,NCI-H1734; first compound 8 µM,0.608
same,relative viability,NCI-H522; first compound 0.08 µM,0.592
same,relative viability,NCI-H522; first compound 0.253 µM,0.733
same,relative viability,NCI-H522; first compound 0.8 µM,0.662
same,relative viability,NCI-H522; first compound 2.53 µM,0.66
same,relative viability,NCI-H522; first compound 8 µM,0.547
same,relative viability,NCI-H727; first compound 0.08 µM,0.69
same,relative viability,NCI-H727; first compound 0.253 µM,0.865
same,relative viability,NCI-H727; first compound 0.8 µM,0.671
same,relative viability,NCI-H727; first compound 2.53 µM,0.371
same,relative viability,NCI-H727; first compound 8 µM,0.636
same,relative viability,HOP-62; first compound 0.08 µM,0.532
same,relative viability,HOP-62; first compound 0.253 µM,0.5
same,relative viability,HOP-62; first compound 0.8 µM,0.321
same,relative viability,HOP-62; first compound 2.53 µM,0.372
same,relative viability,HOP-62; first compound 8 µM,0.393
same,relative viability,PC-3 [JPC-3]; first compound 0.08 µM,1.13
same,relative viability,PC-3 [JPC-3]; first compound 0.253 µM,1.02
same,relative viability,PC-3 [JPC-3]; first compound 0.8 µM,1.11
same,relative viability,PC-3 [JPC-3]; first compound 2.53 µM,1.03
same,relative viability,PC-3 [JPC-3]; first compound 8 µM,1.2
same,relative viability,ChaGo-K-1; first compound 0.08 µM,0.401
same,relative viability,ChaGo-K-1; first compound 0.253 µM,0.392
same,relative viability,ChaGo-K-1; first compound 0.8 µM,0.411
same,relative viability,ChaGo-K-1; first compound 2.53 µM,0.358
same,relative viability,ChaGo-K-1; first compound 8 µM,0.401
same,relative viability,SW 1573; first compound 0.08 µM,0.485
same,relative viability,SW 1573; first compound 0.253 µM,0.547
same,relative viability,SW 1573; first compound 0.8 µM,0.505
same,relative viability,SW 1573; first compound 2.53 µM,0.309
same,relative viability,SW 1573; first compound 8 µM,0.224
same,relative viability,LC-2-ad; first compound 0.08 µM,0.683
same,relative viability,LC-2-ad; first compound 0.253 µM,0.751
same,relative viability,LC-2-ad; first compound 0.8 µM,0.343
same,relative viability,LC-2-ad; first compound 2.53 µM,0.596
same,relative viability,LC-2-ad; first compound 8 µM,0.668
same,relative viability,NCI-H441; first compound 0.08 µM,0.487
same,relative viability,NCI-H441; first compound 0.253 µM,0.391
same,relative viability,NCI-H441; first compound 0.8 µM,0.528
same,relative viability,NCI-H441; first compound 8 µM,0.486
same,relative viability,UMC-11; first compound 0.08 µM,0.37
same,relative viability,UMC-11; first compound 0.253 µM,0.38
same,relative viability,UMC-11; first compound 0.8 µM,0.352
same,relative viability,UMC-11; first compound 2.53 µM,0.27
same,relative viability,UMC-11; first compound 8 µM,0.335
same,relative viability,SK-LU-1; first compound 0.08 µM,0.465
same,relative viability,SK-LU-1; first compound 0.253 µM,0.451
same,relative viability,SK-LU-1; first compound 0.8 µM,0.454
same,relative viability,SK-LU-1; first compound 2.53 µM,0.393
same,relative viability,SK-LU-1; first compound 8 µM,0.377
